Assay results from PubChem BioAssay (NCI).
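GI50 = concentration required for 50% inhibition of growth. TGI: total growth inhibition.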

Experiments:
Assay in all cases: DTP human tumour cell line panel, 384-well format
CAKI-1 renal = tested on: CAKI-1 renal
DU-145 prostate = tested on: DU-145 prostate
HCC-2998 colon = tested on: HCC-2998 colon
HL-60(TB) leukemia = tested on: HL-60(TB) leukemia
HOP-62 NSCLC = tested on: HOP-62 NSCLC
NCI-H23 lung = tested on: NCI-H23 lung
NCI-H322M lung = tested on: NCI-H322M lung
NCI-H460 NSCLC = tested on: NCI-H460 NSCLC
NCI/ADR-RES ovarian = tested on: NCI/ADR-RES ovarian
RXF 393 renal = tested on: RXF 393 renal
SF-539 CNS = tested on: SF-539 CNS
SNB-75 CNS = tested on: SNB-75 CNS
SW-620 colon = tested on: SW-620 colon

Molecule `O=C1Nc2ccc(I)cc2/C1=C/c1cc(Br)c(O)c(Br)c1` has a GI50 (CAKI-1 renal) of 21.3 µM, a TGI (CAKI-1 renal) of 43.9 µM and a GI50 (DU-145 prostate) of 22.9 µM. For the same molecule, the TGI (DU-145 prostate) was 88.9 µM, the GI50 (HCC-2998 colon) was 22.8 µM and the TGI (HCC-2998 colon) was 38 µM. The GI50 (HL-60(TB) leukemia) was 11.3 µM, the TGI (HL-60(TB) leukemia) was 23.4 µM and the GI50 (HOP-62 NSCLC) was 20.4 µM. It also gave a TGI (HOP-62 NSCLC) of 39.9 µM, a GI50 (NCI-H23 lung) of 14.1 µM and a TGI (NCI-H23 lung) of 27.6 µM. For the same molecule, the GI50 (NCI-H322M lung) was 15.7 µM, the TGI (NCI-H322M lung) was 39.6 µM and the GI50 (NCI-H460 NSCLC) was 14.9 µM. The TGI (NCI-H460 NSCLC) was 28.6 µM, the GI50 (NCI/ADR-RES ovarian) was 18 µM and the TGI (NCI/ADR-RES ovarian) was 43.5 µM. For the same molecule, the GI50 (RXF 393 renal) was 12.6 µM, the TGI (RXF 393 renal) was 25.5 µM and the GI50 (SF-539 CNS) was 15.4 µM. It also gave a TGI (SF-539 CNS) of 30.1 µM, a GI50 (SNB-75 CNS) of 25.7 µM and a TGI (SNB-75 CNS) of 51.8 µM. For the same molecule, the GI50 (SW-620 colon) was 16.9 µM and the TGI (SW-620 colon) was 31.4 µM.
